# Columns and labels:
# [1] = tested on: serum GPT elevation due to carbon tetrachloride liver damage; assay: Carbon tetrachloride induced liver damage in rats, inhibition of serum GPT elevation; assay type: in vivo, Male Sprague Dawley rats; details: given twice (1 hour before and 3 hours after carbon tetrachloride 1 ml/kg orally), blood 24 hours after, route not given
# Procedure: The experimental liver damage was induced with carbon tetrachloride as the challenging agent. Carbon tetrachloride caused liver damage resembling that of alcohol-induced liver injury.
# Male Sprague Dawley rats weighing around 160 grams were used. Carbon tetrachloride was dissolved in olive oil to obtain 20% solution, which was administed in doses of 5ml/kg orally (carbon tetrachloride: 1 ml/ kg). The test compounds were suspended in Cremophor buffer for intraperitoneal administration, and in 0.5% methyl cellulose solution for oral administration; and the test solutions were administered in doses of 5ml/kg respectively. The administration of the test compound was conducted twice, namely, 1 hour before and 3 hours after the administration of carbon tetrachloride. 24 hours after the administration of carbon tetrachloride, blood was collected via the great abdominal vein, and the level of serum GPT was measured. […] Thus, the compounds of this invention are usuful for agents for treatment and prevention of liver damage.
# Other compounds, of formula I-B, were also found to have activity inhibiting the elevation of GPT due to carbon tetrachloride administration.
# [2] = tested on: increase in GPT level, galactosamine-induced liver damage; assay: D-galactosamine challenge in rats (test compound in 0.5 % methyl cellulose), inhibition of increase in serum GPT; assay type: in vivo, SD male rats; details: 30 mg/kg oral in 0.5 % methyl cellulose, twice (1 hour before and 3 hours after D-galactosamine 425mg/kg i.p.), blood 24 hours after
# Procedure: Experimental liver damage was induced with D-galactosamine as the challenging agent. Liver damage caused by D-galactosamine resembled that of acute hepatitis. The galactosamine hepatitis model is described in known prior art.
# Animals used: SD male rats (7 week age, about 220 g body weight)
# Administration method of the challenge compound: • D-galactosamine was dissolved in a physiological sodium chloride aqueous solution, and this solution was administered intraperitoneally to give galactosamine-induced liver damage. (Administered dose: 425mg/4mllkg) Administration method of the test compound: The test compound was suspended in 0.5 % methyl cellulose solution, and administered in doses of 30 mg/5 mi/kg, orally. The test compound was administered twice (1 hour before the D-galactosamine administration and 3 hours after its administration). 24 hours after the D-galactosamine administration, blood was obtained from the pentobarbital-anesthetized rats,and the level of serum-GPT was determined.
# [3] = Absorbability / bioavailability (statement); assay type: in vivo; details: qualitative statement; oral suspension in 0.5 % methyl cellulose
# [4] = Solubility in water (statement); assay type: physicochemical; details: qualitative statement
Compound,Inhibiting effect (%) (30mg/kg administration) [1],"Inhibition rate (%) (30mg/kg, oral administration) [2]",further results
"COC(=O)c1c(C)nc(C)c(C(=O)OC)c1-c1ccc2c(c1OC)OCO2 [Example 2, dimethyl 4-(2-methoxy-3,4-methylenedioxy)phenyl-2,6-dimethylpyridine-3,5-dicarboxylate]",81.1,–,–
COC(=O)c1c(-c2c(C(=O)OC)c(C)nc(C)c2C(=O)OC)cc(OC)c2c1OCO2 [Example 14],–,67.8,–
"dimethyl 4-(3,4-methylenedioxy)phenyl-2,6-dimethyl-1,4-dihydropyridine-3,5-dicarboxylate [Example A]",68.6,–,–
"COC(=O)C1=C(C)NC(C)=C(C(=O)OC)C1c1cccc2c1OCO2 [Example P, dimethyl 4-(2,3-methylenedioxy)phenyl-2,6-dimethyl-1,4-dihydropyridine-3,5-dicarboxylate]",85.4,–,–
"COC(=O)c1c(C)nc(C)c(C(=O)OC)c1-c1cccc2c1OCO2 [Example U, dimethyl 4-(2,3-methylenedioxy)phenyl-2,6-dimethylpyridine-3,5-dicarboxylate]",76.0,–,–
"COC(=O)c1c(C)nc(C)c(C(=O)OC)c1-c1c([N+](=O)[O-])ccc2c1OCO2 [Example 36, Dimethyl 4-(2,3-methylenedioxy-6-nitro)phenyl-2,6-dimethylpyridine-3,5-dicarboxylate]",89.7,–,–
"COC(=O)C1=C(C)NC(C)=C(C(=O)OC)C1c1ccc2c(c1C(=O)OC)OCO2 [Example 7, dimethyl 4-(2-methoxycarbonyl-3,4-meth-lenedioxy)phenyl-2,6-dimethyl-1,4-dihydropyridine-3,5-dicarboxylate]",74.9,70.7,–
"COC(=O)C1=C(C)NC(C)=C(C(=O)OC)C1c1ccccc1C(=O)OC [Example C, dimethyl 4-(2-methoxycarbonyl)phenyl-2,6-dimethyl-1,4-dihydropyridine-3,5-dicarboxylate]",91.6,–,–
"COC(=O)C1=C(C)NC(C)=C(C(=O)OC)C1c1cc2c(cc1Br)OCO2 [Example 22, Dimethyl 4-(3,4-methylenedioxy-6-bromo)phenyl-2,6-dimethyl-1,4-dihydropyridine-3,5-dicarboxylate]",82.3,–,–
CCOc1c(N)c2c(c(OCC)c1OCC)C(C1c3c(cc4c(c3OC)OCO4)CCN1C)OC2=O (stereo not shown) [Tritoqualine],–,0,bioavailability (absorbability) [3]: low bioavailability; solubility in water [4]: difficultly soluble in water
